{"source": "patent US20250186541A1", "about": "“DLL3 TARGETING PEPTIDES AND CONSTRUCTS THEREOF” (MARIANA ONCOLOGY INC., priority 2023, published 2025)", "note": "Bridge positions count the residues as written; N and C are the ends. Square brackets hold non-standard residues; d marks the D form. Peptide text beside a SMILES is read from it. * marks the point of attachment. DOTA = O=C(O)CN1CCN(CC(=O)O)CCN(CC(=O)*)CCN(CC(=O)O)CC1; Trp(7-aza) = N[C@@H](Cc1c[nH]c2ncccc12)C(=O)O; Bip = N[C@@H](Cc1ccc(-c2ccccc2)cc1)C(=O)O; Tle = CC(C)(C)[C@H](N)C(=O)O; Nle = CCCC[C@H](N)C(=O)O; Ahx = NCCCCCC(=O)O", "data": [{"biological_target": "T1, human DLL3 (Homo sapiens, UniProt Q9NYJ7)", "T1 construct": "biotin (biotinylated)", "T1 sequence (Q9NYJ7 27-618)": "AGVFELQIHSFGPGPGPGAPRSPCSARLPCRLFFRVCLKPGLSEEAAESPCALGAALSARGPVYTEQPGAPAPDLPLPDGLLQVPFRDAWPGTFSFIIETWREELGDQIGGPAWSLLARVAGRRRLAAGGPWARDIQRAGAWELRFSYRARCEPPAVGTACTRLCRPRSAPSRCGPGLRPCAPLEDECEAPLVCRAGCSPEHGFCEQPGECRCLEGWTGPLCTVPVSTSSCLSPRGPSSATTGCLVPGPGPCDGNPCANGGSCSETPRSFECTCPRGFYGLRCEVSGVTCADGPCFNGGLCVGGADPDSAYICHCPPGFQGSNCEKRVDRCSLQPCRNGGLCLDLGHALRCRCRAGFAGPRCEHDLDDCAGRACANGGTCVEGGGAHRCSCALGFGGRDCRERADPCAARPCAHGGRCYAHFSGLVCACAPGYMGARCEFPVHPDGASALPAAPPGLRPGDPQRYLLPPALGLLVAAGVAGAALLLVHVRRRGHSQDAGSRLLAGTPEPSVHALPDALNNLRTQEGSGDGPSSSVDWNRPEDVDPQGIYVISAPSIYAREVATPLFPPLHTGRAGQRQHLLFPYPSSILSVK", "assay": "Affinity determination by Surface Plasmon Resonance (SPR), Biacore, 1:1 binding model", "settings": "biotinylated human DLL3 on streptavidin chip, 25° C.; NB = nonbinding", "summary_of_the_method": "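SPR with biotinylated human DLL3 captured on a streptavidin chip, with a reference surface subtracted. Samples were injected at several concentrations at 100 μL/min in phosphate buffer with 137 mM NaCl, 2.7 mM KCl, 0.05% P20 and 2% DMSO. Kinetic and affinity constants came from a 1:1 binding fit.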", "units": {"Kd": "nM"}, "values": [{"smiles": "CSCC[C@H](NC(C)=O)C(=O)N[C@@H](CO)C(=O)N[C@@H](CC(=O)O)C(=O)N[C@H]1CSSC[C@@H](C(=O)N2CCC[C@H]2C(=O)N[C@@H](Cc2ccccc2)C(=O)N[C@@H](CC(=O)O)C(=O)N[C@H](CCCCNC(=O)CN2CCN(CC(=O)O)CCN(CC(=O)O)CCN(CC(=O)O)CC2)C(N)=O)NC(=O)[C@H](CC(N)=O)NC(=O)[C@H](Cc2c[nH]c3ccccc23)NC(=O)[C@H](CCC(N)=O)NC(=O)[C@H](CC(C)C)NC(=O)[C@H](Cc2c[nH]c3ncccc23)NC1=O", "note": "[compound 57, Ac-M-S-D-C(3)-(7Aza-W)-L-Q-W-N-C(3)-P-F-D-D-Lys(DOTA)-CONH2] (Ac-MSDC[Trp(7-aza)]LQWNCPFD[dK](DOTA)-NH2; disulfide 4-10)", "Kd": "> 300"}, {"smiles": "CSCC[C@H](NC(C)=O)C(=O)N[C@@H](CO)C(=O)N[C@@H](CC(=O)O)C(=O)N[C@H]1CSSC[C@@H](C(=O)N2CCC[C@H]2C(=O)N[C@@H](Cc2ccccc2)C(=O)N[C@@H](CC(=O)O)C(=O)N[C@H](CCCCNC(=O)CN2CCN(CC(=O)O)CCN(CC(=O)O)CCN(CC(=O)O)CC2)C(N)=O)NC(=O)[C@H](CC(N)=O)NC(=O)[C@H](Cc2ccc(-c3ccccc3)cc2)NC(=O)[C@H](CCC(N)=O)NC(=O)[C@H](CC(C)C)NC(=O)[C@H](Cc2c[nH]c3ccccc23)NC1=O", "note": "[compound 60, Ac-M-S-D-C(3)-W-L-Q-(BIP)-N-C(3)-P-F-D-D-Lys(DOTA)-CONH2] (Ac-MSDCWLQ[Bip]NCPFD[dK](DOTA)-NH2; disulfide 4-10)", "Kd": "> 300"}, {"smiles": "CCCC[C@@H]1NC(=O)[C@H](Cc2c[nH]c3ccccc23)NC(=O)[C@@H](NC(=O)[C@H](CC(=O)O)NC(=O)[C@H](CO)NC(=O)[C@H](CCSC)NC(C)=O)CSSC[C@@H](C(=O)N2CCC[C@H]2C(=O)N[C@@H](Cc2ccccc2)C(=O)N[C@@H](CC(=O)O)C(=O)N[C@H](CCCCNC(=O)CN2CCN(CC(=O)O)CCN(CC(=O)O)CCN(CC(=O)O)CC2)C(N)=O)NC(=O)[C@H](CC(N)=O)NC(=O)[C@H](Cc2c[nH]c3ccccc23)NC(=O)[C@H](CCC(N)=O)NC1=O", "note": "[compound 68, Ac-M-S-D-C(3)-W-(Nle)-Q-W-N-C(3)-P-F-D-D-Lys(DOTA)-CONH2] (Ac-MSDCW[Nle]QWNCPFD[dK](DOTA)-NH2; disulfide 4-10)", "Kd": 15.9}, {"smiles": "CC(C)C[C@@H]1NC(=O)[C@H](Cc2c[nH]c3ccccc23)NC(=O)[C@@H](NC(=O)[C@H](CC(=O)O)NC(=O)[C@H](CO)NC(=O)CCCCCNC(=O)CN2CCN(CC(=O)O)CCN(CC(=O)O)CCN(CC(=O)O)CC2)CSSC[C@@H](C(=O)N2CCC[C@H]2C(=O)N[C@@H](Cc2ccccc2)C(=O)N[C@@H](CC(=O)O)C(N)=O)NC(=O)[C@H](CC(N)=O)NC(=O)[C@H](Cc2c[nH]c3ccccc23)NC(=O)[C@H](CCC(N)=O)NC1=O", "note": "[compound 72, DOTA-Ahx-S-D-C(3)-W-L-Q-W-N-C(3)-P-F-D-CONH2] ({DOTA-Ahx}-SDCWLQWNCPFD-NH2; disulfide 3-9)", "Kd": 11}, {"smiles": "CC(C)C[C@@H]1NC(=O)[C@H](Cc2c[nH]c3ccccc23)NC(=O)[C@@H](NC(=O)[C@H](CC(=O)O)NC(=O)[C@H](CO)NC(=O)CCCCCNC(=O)CN2CCN(CC(=O)O)CCN(CC(=O)O)CCN(CC(=O)O)CC2)CSSC[C@@H](C(=O)N2CCC[C@H]2C(=O)N[C@@H](Cc2ccccc2)C(=O)N[C@@H](CC(=O)O)C(=O)N[C@H](CCCCN)C(N)=O)NC(=O)[C@H](CC(N)=O)NC(=O)[C@H](Cc2c[nH]c3ccccc23)NC(=O)[C@H](CCC(N)=O)NC1=O", "note": "[compound 73, DOTA-Ahx-S-D-C(3)-W-L-Q-W-N-C(3)-P-F-D-(D-Lys)-NH2] ({DOTA-Ahx}-SDCWLQWNCPFD[dK]-NH2; disulfide 3-9)", "Kd": "> 100"}, {"smiles": "CC(=O)NCCCCCC(=O)N[C@@H](CO)C(=O)N[C@@H](CC(=O)O)C(=O)N[C@H]1CSSC[C@@H](C(=O)N2CCC[C@H]2C(=O)N[C@@H](Cc2ccccc2)C(=O)N[C@@H](CC(=O)O)C(=O)N[C@H](CCCCNC(=O)CN2CCN(CC(=O)O)CCN(CC(=O)O)CCN(CC(=O)O)CC2)C(N)=O)NC(=O)[C@H](CC(N)=O)NC(=O)[C@H](Cc2c[nH]c3ccccc23)NC(=O)[C@H](CCC(N)=O)NC(=O)[C@H](CC(C)C)NC(=O)[C@H](Cc2c[nH]c3ccccc23)NC1=O", "note": "[compound 74, Ac-Ahx-S-D-C(3)-W-L-Q-W-N-C(3)-P-F-D-D-Lys(DOTA)-CONH2] (Ac-[Ahx]SDCWLQWNCPFD[dK](DOTA)-NH2; disulfide 4-10)", "Kd": 9}, {"smiles": "CC(=O)N[C@H](C(=O)N[C@@H](CO)C(=O)N[C@@H](CC(=O)O)C(=O)N[C@H]1CSSC[C@@H](C(=O)N2CCC[C@H]2C(=O)N[C@@H](Cc2ccccc2)C(=O)N[C@@H](CC(=O)O)C(=O)N[C@H](CCCCNC(=O)CN2CCN(CC(=O)O)CCN(CC(=O)O)CCN(CC(=O)O)CC2)C(N)=O)NC(=O)[C@H](CC(N)=O)NC(=O)[C@H](Cc2c[nH]c3ccccc23)NC(=O)[C@H](CCC(N)=O)NC(=O)[C@H](CC(C)C)NC(=O)[C@H](Cc2c[nH]c3ccccc23)NC1=O)C(C)(C)C", "note": "[compound 76, Ac-tBuGly-S-D-C(3)-W-L-Q-W-N-C(3)-P-F-D-D-Lys(DOTA)-CONH2] (Ac-[Tle]SDCWLQWNCPFD[dK](DOTA)-NH2; disulfide 4-10)", "Kd": 12}, {"smiles": "CC(=O)N[C@@H](CO)C(=O)N[C@@H](CO)C(=O)N[C@@H](CC(=O)O)C(=O)N[C@H]1CSSC[C@@H](C(=O)N2CCC[C@H]2C(=O)N[C@@H](Cc2ccccc2)C(=O)N[C@@H](CC(=O)O)C(=O)N[C@H](CCCCNC(=O)CN2CCN(CC(=O)O)CCN(CC(=O)O)CCN(CC(=O)O)CC2)C(N)=O)NC(=O)[C@H](CC(N)=O)NC(=O)[C@H](Cc2c[nH]c3ccccc23)NC(=O)[C@H](CCC(N)=O)NC(=O)[C@H](CC(C)C)NC(=O)[C@H](Cc2c[nH]c3ccccc23)NC1=O", "note": "[compound 78, Ac-Ser-S-D-C(3)-W-L-Q-W-N-C(3)-P-F-D-D-Lys(DOTA)-CONH2] (Ac-SSDCWLQWNCPFD[dK](DOTA)-NH2; disulfide 4-10)", "Kd": 16}, {"smiles": "CCCC[C@H](NC(C)=O)C(=O)N[C@@H](CO)C(=O)N[C@@H](CC(=O)O)C(=O)N[C@H]1CSSC[C@@H](C(=O)N2CCC[C@H]2C(=O)N[C@@H](Cc2ccccc2)C(=O)N[C@@H](CC(=O)O)C(=O)N[C@H](CCCCNC(=O)CN2CCN(CC(=O)O)CCN(CC(=O)O)CCN(CC(=O)O)CC2)C(N)=O)NC(=O)[C@H](CC(N)=O)NC(=O)[C@H](Cc2c[nH]c3ccccc23)NC(=O)[C@H](CCC(N)=O)NC(=O)[C@H](CC(C)C)NC(=O)[C@H](Cc2c[nH]c3ccccc23)NC1=O", "note": "[compound 79, Ac-Nle-S-D-C(3)-W-L-Q-W-N-C(3)-P-F-D-D-Lys(DOTA)-CONH2] (Ac-[Nle]SDCWLQWNCPFD[dK](DOTA)-NH2; disulfide 4-10)", "Kd": 9}, {"smiles": "CC(=O)N[C@@H](Cc1ccccc1)C(=O)N[C@@H](CO)C(=O)N[C@@H](CC(=O)O)C(=O)N[C@H]1CSSC[C@@H](C(=O)N2CCC[C@H]2C(=O)N[C@@H](Cc2ccccc2)C(=O)N[C@@H](CC(=O)O)C(=O)N[C@H](CCCCNC(=O)CN2CCN(CC(=O)O)CCN(CC(=O)O)CCN(CC(=O)O)CC2)C(N)=O)NC(=O)[C@H](CC(N)=O)NC(=O)[C@H](Cc2c[nH]c3ccccc23)NC(=O)[C@H](CCC(N)=O)NC(=O)[C@H](CC(C)C)NC(=O)[C@H](Cc2c[nH]c3ccccc23)NC1=O", "note": "[compound 80, Ac-Phe-S-D-C(3)-W-L-Q-W-N-C(3)-P-F-D-D-Lys(DOTA)-CONH2] (Ac-FSDCWLQWNCPFD[dK](DOTA)-NH2; disulfide 4-10)", "Kd": 10}]}]}
